In ChEMBL document CHEMBL1201862, “PubChem BioAssay data set” (2004):
The source made the active and inactive calls.

Key:
[1] = biological target: T1, Endoribonuclease toxin MazF (Escherichia coli K-12, UniProt P0AE70); experiment: fluorescent RNA oligo signal without MazF, dose response, counter-screen for MazEF activator project, biochemical, fluorescence, single-stranded RNase substrate (AID 588502); format: functional
Troponin, cardiac muscle = Troponin, cardiac muscle (Homo sapiens, UniProt P19429+P45379+P63316); experiment: Fluorescence-based biochemical high throughput dose response assay for activators of the calcium sensitivity of cardiac Regulated Thin Filaments (RTF). [Related pubchem assays (depositor defined):AID493008, AID493018, AID504382, AID504383]; format: protein-complex assay
ORF 73 = ORF 73 (Human herpesvirus 8, UniProt O40947); experiment: inhibitors of C-LANA binding to LBS DNA, dose response, biochemical, fluorescence polarization, cherry-picked samples (AID 504725); set-up: species or system Human gammaherpesvirus 8;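 note: fluorescence polarization of a labeled DNA duplex reporting LANA DNA binding; potency is for inhibitors that block LANA binding to the DNA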
Keap1/Nrf2 = Keap1/Nrf2 (Homo sapiens, UniProt Q14145); experiment: Keap1-Nrf2 protein-protein interaction inhibitors, dose response, biochemical, fluorescence polarization, cherry-picked samples (AID 588683)
[2] = biological target: UDP-galactopyranose mutase (Mycobacterium tuberculosis, UniProt P9WIQ1); experiment: Inhibitors of Mycobacterium tuberculosis UDP-galactopyranose mutase (UGM) enzyme Measured in Biochemical System Using Plate Reader - 2105-02_Inhibitor_Dose_CherryPick_Activity. [Related pubchem assays (depositor defined):AID504439]
[3] = biological target: T2, Oxysterols receptor LXR-beta (Homo sapiens, UniProt P55055); experiment: LXR agonists, Gal4 luciferase reporter, dose response, counter-screen for ssDAF-12 agonist project, cell-based, luminescence, HEK293, S. stercoralis campaign (AID 720737); format: functional; details: read-out: IC50 (the source's name)
T2 sequence (P55055 whole entry): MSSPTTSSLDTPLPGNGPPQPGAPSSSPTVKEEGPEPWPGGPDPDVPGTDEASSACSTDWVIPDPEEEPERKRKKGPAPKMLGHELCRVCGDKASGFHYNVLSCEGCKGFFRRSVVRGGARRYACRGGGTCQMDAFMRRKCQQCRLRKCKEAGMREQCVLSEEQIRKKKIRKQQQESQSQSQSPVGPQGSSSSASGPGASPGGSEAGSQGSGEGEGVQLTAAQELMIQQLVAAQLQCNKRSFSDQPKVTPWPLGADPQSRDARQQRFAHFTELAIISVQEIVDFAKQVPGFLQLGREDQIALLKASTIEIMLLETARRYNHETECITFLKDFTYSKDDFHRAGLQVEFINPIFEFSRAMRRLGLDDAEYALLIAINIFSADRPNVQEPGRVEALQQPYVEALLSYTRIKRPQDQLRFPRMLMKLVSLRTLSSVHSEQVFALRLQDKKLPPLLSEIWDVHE

[4] = Luminescence-based cell-based high throughput dose response assay to identify activators of the DAF-12 from the parasite S. stercoralis (ssDAF-12).; format: functional
[5] = biological target: T1, Endoribonuclease toxin MazF; experiment: MazF toxin RNase activators, dose response, biochemical, fluorescence, single-stranded RNA substrate, uHTS hits (AID 588481); format: functional
[6] = biological target: Dual specificity protein kinase CLK1 (Homo sapiens, UniProt P49759); experiment: CLK1 kinase inhibitors, off-target check, dose response, selectivity assay for Dyrk1A inhibitor project, biochemical, cherry-picked samples (AID 588811)
A-375 = experiment: A375 melanoma cell viability reduction, dose response, counter-screen for MITF modulator project, cherry-pick samples, set 2 (AID 540335); format: functional, cell-based; details: Homo sapiens
[7] = inhibitors of SNCA 5'UTR-driven reporter translation, confirmation, H4 neuroglioma cells, luminescence (AID 1988); format: functional, cell-based
[8] = cytotoxicity toward DRD oncogenic fibroblasts, dose response, cell-based, non-viral oncogenic, luminescence (AID 1934); format: functional; details: Homo sapiens
BJ [9] = experiment: cells; format: functional, cell-based; details: Homo sapiens
[10] = inhibitors of firefly luciferase expression or activity, dose response, H4 neuroglioma cells, luminescence (AID 1990); format: functional, cell-based
BJ [11] = experiment: cytotoxicity toward BJ-TERT fibroblasts, dose response, cell-based, RAS-independent, luminescence (AID 1933); format: functional; details: Homo sapiens
[12] = nonselective inhibitors of cellular cAMP signaling, dose response, counter-screen for MC4R biased antagonist project, cell-based, TR-FRET cAMP detection (AID 602305); format: functional;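 note: U2OS cells stimulated with forskolin near its EC80 as the cAMP inducer; potency is for inhibition of forskolin-stimulated cAMP signaling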
[13] = Luminescence Cell-Based Dose Retest to Confirm Inhibitors of Cancer Stem Cells. [Related pubchem assays (depositor defined):AID2717, AID2721]; format: functional; details: Homo sapiens
[14] = biological target: T3, Microphthalmia-associated transcription factor (Homo sapiens, UniProt O75030); experiment: TRPM1 promoter luciferase signal decrease, dose response, MITF inhibitor project, cell-based, SK-MEL-5, cherry-picked, set 3 (AID 493073); format: functional
T3 sequence (O75030 whole entry): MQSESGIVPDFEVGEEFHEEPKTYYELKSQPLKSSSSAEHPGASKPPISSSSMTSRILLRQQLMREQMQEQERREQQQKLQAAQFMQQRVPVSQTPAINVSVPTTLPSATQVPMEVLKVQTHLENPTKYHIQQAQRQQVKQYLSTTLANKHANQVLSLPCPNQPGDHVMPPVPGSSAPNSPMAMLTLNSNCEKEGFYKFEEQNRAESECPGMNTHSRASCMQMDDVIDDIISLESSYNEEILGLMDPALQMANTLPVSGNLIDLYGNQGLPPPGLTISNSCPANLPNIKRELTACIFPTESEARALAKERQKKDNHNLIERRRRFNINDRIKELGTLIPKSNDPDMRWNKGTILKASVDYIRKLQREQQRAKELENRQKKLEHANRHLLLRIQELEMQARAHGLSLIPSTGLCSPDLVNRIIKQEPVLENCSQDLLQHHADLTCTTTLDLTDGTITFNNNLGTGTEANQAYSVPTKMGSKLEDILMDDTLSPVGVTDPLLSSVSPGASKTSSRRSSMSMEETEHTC

Melanocortin receptor 4 = Melanocortin receptor 4 (Homo sapiens, UniProt P32245); experiment: MC4R antagonist potency on cAMP, dose response, cell-based, TR-FRET, biased antagonists (AID 602298); format: functional;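 note: antagonist potency against agonist-stimulated cAMP production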
[15] = Luminescence Cell-Based Dose Response HTS to Identify Inhibitors of 5'UTR Stem-Loop Driven Prion Protein mRNA Translation in H4 Neuroglioblastoma Cells. [Related pubchem assays: 1827 (Project Summary), 1813 (Primary HTS)]; format: functional
BJ [16] = experiment: cytotoxicity toward BJ-TERT-LT-ST fibroblasts, dose response, cell-based, RAS-independent, luminescence (AID 1935); format: functional; details: Homo sapiens;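 note: BJ fibroblasts immortalized with TERT plus LT and ST oncogenes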
Phospholipase D1 = Phospholipase D1 (Homo sapiens, UniProt Q13393); experiment: PLD1 inhibitor potency in cells, dose response (AID 602151); format: functional;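 note: cellular PLD1 assay in Calu-1 cells stimulated with PMA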
Jurkat = experiment: SAR Analysis of small molecule inhibitors of […] specific antigen receptor-induced NF-kB activation in a Jurkat cell line using a luminescence assay - Set 3. [Related pubchem assays (depositor defined):AID435022, AID435025, AID465]; format: functional, cell-based; details: Homo sapiens
HEK293 [17] = experiment: SAR Analysis of small molecule inhibitors of B-cell specific antigen receptor-induced NF-kB activation in a HEK-293T cell line using a luminescence assay - Set 2. [Related pubchem assays (depositor defined):AID435022, AID435025, AID489021]; format: functional, cell-based; details: Homo sapiens
HEK293 [18] = experiment: cytotoxicity in HEK293T NF-kB-Luc cells, SAR follow-up, cytotoxicity control for NF-kB activator project, cell-based, resazurin fluorescence (AID 493251); format: functional; details: Homo sapiens
[19] = biological target: Short transient receptor potential channel 6 (Mus musculus, UniProt Q61143); experiment: TRPC6 inhibition potency of TRPC4 inhibitor analogs, dose response, selectivity assay for selective TRPC4 inhibitor project, HEK293 cells, membrane potential dye, IC50 (AID 492987); format: functional, cell-based
[20] = biological target: T4, Short transient receptor potential channel 4 (Mus musculus, UniProt Q9QUQ5); experiment: SAR Analysis for the identification of selective inhibits of the transient receptor potential cation channel C4 (TRPC4): Automated Electrophysiology. [Related pubchem assays (depositor defined):AID2256]; format: functional
T4 sequence (Q9QUQ5 whole entry): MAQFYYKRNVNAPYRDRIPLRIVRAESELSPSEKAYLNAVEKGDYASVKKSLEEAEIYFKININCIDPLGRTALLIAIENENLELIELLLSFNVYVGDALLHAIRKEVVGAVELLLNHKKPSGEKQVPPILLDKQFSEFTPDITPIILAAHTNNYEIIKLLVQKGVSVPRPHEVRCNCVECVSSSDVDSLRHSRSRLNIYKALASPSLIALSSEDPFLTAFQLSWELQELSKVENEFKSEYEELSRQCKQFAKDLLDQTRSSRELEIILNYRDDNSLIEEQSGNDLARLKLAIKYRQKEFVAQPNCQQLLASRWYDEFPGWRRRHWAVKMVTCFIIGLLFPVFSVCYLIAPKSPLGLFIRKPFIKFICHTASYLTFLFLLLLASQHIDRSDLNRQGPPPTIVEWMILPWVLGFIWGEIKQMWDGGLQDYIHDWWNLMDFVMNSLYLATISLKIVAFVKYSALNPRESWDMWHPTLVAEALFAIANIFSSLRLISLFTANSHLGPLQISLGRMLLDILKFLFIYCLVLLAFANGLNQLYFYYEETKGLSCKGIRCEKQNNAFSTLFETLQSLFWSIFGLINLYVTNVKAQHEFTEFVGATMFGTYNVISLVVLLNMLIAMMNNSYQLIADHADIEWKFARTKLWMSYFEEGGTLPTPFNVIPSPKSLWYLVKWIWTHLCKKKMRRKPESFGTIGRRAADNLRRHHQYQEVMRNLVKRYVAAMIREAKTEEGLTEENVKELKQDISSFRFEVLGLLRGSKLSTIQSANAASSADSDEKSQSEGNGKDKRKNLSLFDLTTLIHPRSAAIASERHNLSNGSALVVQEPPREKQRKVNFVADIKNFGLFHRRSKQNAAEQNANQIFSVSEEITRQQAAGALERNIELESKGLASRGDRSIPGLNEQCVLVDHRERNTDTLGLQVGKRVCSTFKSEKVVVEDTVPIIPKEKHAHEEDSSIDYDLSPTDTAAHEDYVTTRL

[21] = biological target: T4, Short transient receptor potential channel 4; experiment: TRPC4 inhibitor concentration-response, dose response, cell-based, HEK293 TRPC4/mu-opioid, DAMGO stimulus, Fluo-4 (AID 492994); format: functional

T1 sequence (P0AE70 whole entry): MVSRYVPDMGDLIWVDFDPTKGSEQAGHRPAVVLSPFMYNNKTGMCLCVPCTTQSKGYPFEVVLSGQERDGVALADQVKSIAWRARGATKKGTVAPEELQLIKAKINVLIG
ORF 73, sequence (O40947 whole entry): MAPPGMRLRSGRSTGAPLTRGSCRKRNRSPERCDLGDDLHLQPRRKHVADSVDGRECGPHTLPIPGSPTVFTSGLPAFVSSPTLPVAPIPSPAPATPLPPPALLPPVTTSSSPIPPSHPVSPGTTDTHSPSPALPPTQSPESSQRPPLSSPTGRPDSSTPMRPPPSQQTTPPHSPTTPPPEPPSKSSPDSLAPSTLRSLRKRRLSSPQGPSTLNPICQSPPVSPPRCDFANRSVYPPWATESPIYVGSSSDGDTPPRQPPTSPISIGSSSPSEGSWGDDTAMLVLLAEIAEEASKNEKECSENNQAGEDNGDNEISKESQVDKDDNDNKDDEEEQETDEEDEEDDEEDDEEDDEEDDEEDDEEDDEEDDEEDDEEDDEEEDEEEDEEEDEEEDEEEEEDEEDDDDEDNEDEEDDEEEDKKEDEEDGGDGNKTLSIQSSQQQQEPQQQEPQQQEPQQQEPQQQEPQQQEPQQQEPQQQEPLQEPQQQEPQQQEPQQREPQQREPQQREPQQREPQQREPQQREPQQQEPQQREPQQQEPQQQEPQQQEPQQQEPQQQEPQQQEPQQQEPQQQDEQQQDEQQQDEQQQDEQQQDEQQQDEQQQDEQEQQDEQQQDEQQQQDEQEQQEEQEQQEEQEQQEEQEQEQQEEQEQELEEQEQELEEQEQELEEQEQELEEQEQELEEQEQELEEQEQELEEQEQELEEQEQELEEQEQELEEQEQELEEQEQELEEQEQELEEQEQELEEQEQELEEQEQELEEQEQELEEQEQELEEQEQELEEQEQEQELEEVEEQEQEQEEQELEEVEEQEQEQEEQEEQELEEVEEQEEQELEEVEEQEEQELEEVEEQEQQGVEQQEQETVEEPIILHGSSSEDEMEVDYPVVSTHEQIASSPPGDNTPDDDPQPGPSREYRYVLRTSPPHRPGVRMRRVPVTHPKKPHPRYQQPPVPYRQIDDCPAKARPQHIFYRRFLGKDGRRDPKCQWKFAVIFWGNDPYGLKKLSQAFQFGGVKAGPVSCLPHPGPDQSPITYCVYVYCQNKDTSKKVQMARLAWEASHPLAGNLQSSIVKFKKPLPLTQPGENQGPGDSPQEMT
Dual specificity protein kinase CLK1, sequence (P49759 whole entry): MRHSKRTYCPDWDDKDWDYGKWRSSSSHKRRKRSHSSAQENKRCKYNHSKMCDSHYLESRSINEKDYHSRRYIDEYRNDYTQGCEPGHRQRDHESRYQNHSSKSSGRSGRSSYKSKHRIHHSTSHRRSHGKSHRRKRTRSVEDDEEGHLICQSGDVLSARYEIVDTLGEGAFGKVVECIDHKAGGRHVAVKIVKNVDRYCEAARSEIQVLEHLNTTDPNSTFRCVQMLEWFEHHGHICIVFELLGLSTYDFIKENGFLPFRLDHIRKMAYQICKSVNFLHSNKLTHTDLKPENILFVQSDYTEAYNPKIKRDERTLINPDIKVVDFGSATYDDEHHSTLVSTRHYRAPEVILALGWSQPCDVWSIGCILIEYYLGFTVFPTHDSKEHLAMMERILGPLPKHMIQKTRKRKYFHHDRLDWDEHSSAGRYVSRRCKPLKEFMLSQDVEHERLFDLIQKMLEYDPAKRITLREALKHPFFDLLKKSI
UDP-galactopyranose mutase, sequence (P9WIQ1 whole entry, the tested form may be a part): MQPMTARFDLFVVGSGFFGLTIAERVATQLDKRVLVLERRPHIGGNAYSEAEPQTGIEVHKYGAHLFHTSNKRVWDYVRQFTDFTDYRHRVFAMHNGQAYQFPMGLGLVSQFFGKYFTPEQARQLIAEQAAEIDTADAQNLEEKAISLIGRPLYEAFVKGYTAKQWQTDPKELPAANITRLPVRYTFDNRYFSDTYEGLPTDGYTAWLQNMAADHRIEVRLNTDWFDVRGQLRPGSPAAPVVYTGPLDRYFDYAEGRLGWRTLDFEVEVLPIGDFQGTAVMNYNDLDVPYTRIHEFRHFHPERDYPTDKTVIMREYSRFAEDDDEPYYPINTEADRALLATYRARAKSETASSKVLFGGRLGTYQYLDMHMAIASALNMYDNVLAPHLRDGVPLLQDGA
Phospholipase D1, sequence (Q13393 whole entry): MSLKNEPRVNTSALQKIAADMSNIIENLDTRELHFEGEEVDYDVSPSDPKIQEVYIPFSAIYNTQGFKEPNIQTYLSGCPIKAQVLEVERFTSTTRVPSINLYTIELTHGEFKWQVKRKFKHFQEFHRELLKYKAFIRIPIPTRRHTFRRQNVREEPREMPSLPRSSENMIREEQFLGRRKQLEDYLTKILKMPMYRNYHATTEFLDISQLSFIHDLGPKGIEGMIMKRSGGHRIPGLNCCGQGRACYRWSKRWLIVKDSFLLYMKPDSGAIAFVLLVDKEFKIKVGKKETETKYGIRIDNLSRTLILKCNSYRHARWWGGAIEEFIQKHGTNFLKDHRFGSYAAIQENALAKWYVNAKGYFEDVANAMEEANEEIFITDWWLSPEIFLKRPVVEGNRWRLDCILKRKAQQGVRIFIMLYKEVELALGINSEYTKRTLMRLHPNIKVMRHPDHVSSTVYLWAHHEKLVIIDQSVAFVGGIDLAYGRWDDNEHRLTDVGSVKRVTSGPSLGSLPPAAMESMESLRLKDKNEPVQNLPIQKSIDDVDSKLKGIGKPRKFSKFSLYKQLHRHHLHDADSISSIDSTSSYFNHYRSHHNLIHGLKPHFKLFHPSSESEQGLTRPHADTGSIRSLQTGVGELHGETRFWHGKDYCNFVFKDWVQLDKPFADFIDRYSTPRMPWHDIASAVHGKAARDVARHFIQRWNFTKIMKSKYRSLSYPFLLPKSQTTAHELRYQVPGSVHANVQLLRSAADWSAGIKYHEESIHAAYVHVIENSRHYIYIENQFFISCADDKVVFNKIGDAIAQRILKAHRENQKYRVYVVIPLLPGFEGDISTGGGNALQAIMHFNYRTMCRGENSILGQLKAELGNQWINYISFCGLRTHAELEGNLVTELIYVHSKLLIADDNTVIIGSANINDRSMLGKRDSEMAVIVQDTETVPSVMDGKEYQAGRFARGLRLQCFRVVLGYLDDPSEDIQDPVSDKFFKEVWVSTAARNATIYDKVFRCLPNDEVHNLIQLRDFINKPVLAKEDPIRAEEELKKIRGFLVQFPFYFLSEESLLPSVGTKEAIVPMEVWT
Melanocortin receptor 4, sequence (P32245 whole entry): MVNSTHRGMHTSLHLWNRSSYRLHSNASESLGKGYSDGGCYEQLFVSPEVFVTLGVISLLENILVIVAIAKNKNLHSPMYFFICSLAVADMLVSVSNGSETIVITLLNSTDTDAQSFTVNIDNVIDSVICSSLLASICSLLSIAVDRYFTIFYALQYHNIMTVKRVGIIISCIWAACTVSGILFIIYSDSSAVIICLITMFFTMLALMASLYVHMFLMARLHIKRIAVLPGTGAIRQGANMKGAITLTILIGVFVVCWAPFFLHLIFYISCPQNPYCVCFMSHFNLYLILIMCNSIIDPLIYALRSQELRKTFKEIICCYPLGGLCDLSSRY
Short transient receptor potential channel 6, sequence (Q61143 whole entry): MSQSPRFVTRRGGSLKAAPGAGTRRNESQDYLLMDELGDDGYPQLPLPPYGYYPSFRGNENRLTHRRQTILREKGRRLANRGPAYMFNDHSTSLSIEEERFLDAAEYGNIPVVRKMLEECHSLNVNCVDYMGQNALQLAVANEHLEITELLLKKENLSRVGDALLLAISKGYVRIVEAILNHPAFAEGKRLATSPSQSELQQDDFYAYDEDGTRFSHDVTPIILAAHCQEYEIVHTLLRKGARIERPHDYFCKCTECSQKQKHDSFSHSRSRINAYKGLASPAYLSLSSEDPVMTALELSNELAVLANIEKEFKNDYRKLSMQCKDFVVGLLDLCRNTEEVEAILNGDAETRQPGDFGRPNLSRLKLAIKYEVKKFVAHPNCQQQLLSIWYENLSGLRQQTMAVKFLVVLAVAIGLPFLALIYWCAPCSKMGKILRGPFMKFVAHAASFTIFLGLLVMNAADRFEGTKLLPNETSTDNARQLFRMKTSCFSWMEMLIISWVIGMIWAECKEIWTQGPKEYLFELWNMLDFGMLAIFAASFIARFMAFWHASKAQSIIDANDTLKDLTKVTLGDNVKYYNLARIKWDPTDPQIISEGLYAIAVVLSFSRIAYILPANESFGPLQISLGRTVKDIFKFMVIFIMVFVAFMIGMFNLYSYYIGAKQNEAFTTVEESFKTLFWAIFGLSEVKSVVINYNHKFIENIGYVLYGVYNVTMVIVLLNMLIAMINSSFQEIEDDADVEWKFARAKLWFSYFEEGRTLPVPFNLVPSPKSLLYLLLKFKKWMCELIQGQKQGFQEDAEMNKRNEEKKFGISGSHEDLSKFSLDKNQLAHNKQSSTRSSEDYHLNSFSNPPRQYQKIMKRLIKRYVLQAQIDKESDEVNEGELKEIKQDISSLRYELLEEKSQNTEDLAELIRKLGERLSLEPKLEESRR

CN(N=Nc1ccc([N+](=O)[O-])cc1)c1ccccc1
EC50 [1]: 31 µM (inactive) | EC50 (Troponin, cardiac muscle): 5.61 µM (active) | AC50 (ORF 73): 11.4 µM (active) | AC50 (Keap1/Nrf2): 21.8 µM (active) | AC50 [2]: 28.7 µM (active) | EC50 [3]: > 67.6 µM (inactive) | IC50 [4]: > 67.6 µM (inactive) | EC50 [5]: > 99 µM (inactive)

Cc1nc(CN(C)c2ncnc3ccc(-c4ccc5c(c4)OCO5)cc23)cs1
AC50 [6]: < 0.00195 µM (active)

O=C(/C=C/c1ccc(Cl)cc1)c1ccc([N+](=O)[O-])o1
AC50 (A-375): 29.9 µM (active) | EC50 [7]: > 120 µM (not active) | EC50 [8]: 1.13 µM (inconclusive) | EC50 (BJ [9]): > 150 µM (inconclusive) | EC50 [10]: 8.88 µM (active) | EC50 (BJ [11]): > 150 µM (not active) | IC50 [12]: > 64.6 µM (inactive) | AC50 [13]: 1.21 µM (active) | AC50 [14]: 5.32 µM (active) | IC50 (Melanocortin receptor 4): > 64.6 µM (inactive) | EC50 [15]: > 60 µM (not active) | EC50 (BJ [16]): > 150 µM (inconclusive)

O=C(NCCN1CC=C(n2c(=O)[nH]c3ccccc32)CC1)C1CC1c1ccccc1 (stereo not drawn)
IC50 (Phospholipase D1): 0.2 µM (active)

CC(C)NC(=O)CCc1nc(-c2ccc(C(C)(C)C)cc2)no1
IC50 (Jurkat): 29.2 µM (inactive) | IC50 (HEK293 [17]): 13.5 µM (active) | IC50 (HEK293 [18]): > 80 µM (inactive)

Cc1ccc2nc(N3CCCC3)cc(C)c2c1
IC50 [19]: 2.03 µM (active) | IC50 [20]: 3.71 µM (active) | IC50 [21]: 2.04 µM (active)
